Measured values as given in US20160206633A1, “dhS1P AND USE OF SAME AS AN ANTICANCER THERAPEUTIC AND IMMUNOMODULATOR” (Penn State Research Foundation, Inc., priority 2013, published 2016).

Tests used:
[1] = test system: isolated IMCs (GEMM colonies, multipotent myeloid progenitor cells); assay: CFU-GEMM colony forming assay of isolated IMCs; type: cell-based, athymic nude mice; settings: 5 μM, GEMM-supportive semi-solid media, 3 weeks of culture
Procedure: (A) Splenic IMCs (Gr-1+CD11b+, also defined as MDSCs: myeloid-derived suppressor cells) were isolated from MDA-MB-231 tumor-bearing athymic nude mice and exposed to BSA, S1P (5 μM), or dhS1P (5 μM). Following 24-hour culture incubation, cells were labeled with specific antibodies and analyzed by multicolor flow cytometry (red: IMCs; blue: possible B-cells). (B) Splenic IMCs were isolated from MDA-MB-231 tumor-bearing athymic nude mice and cultured (5×10^4 cells/mL) in GEMM-supportive semi-solid media with BSA, S1P (5 μM), or dhS1P (5 μM). GEMM colonies (multipotent myeloid progenitor cells) were visualized and counted after 3 weeks of culture. ANOVA, *p<0.01 compared to no treatment or BSA-treatment, ***p<0.001 compared to S1P-treatment, n≧3. (C) Splenic hematopoietic progenitors (Lineage-Sca-1+CD117+) were isolated from MDA-MB-231 tumor-bearing athymic nude mice and exposed to BSA, S1P (5 μM), or dhS1P (5 μM). Following 24-hour culture incubation, cells were labeled with specific antibodies and analyzed by multicolor flow cytometry. […]
Isolated IMCs from the spleens of tumor-bearing athymic nude mice were cultured (5×10^4 cells/mL) in GEMM-supportive complete (mouse) methylcellulose media (R&D Systems, Minneapolis, Minn.), according to the manufacturer's instructions, with BSA, S1P (5 μM), or dhS1P (5 μM). GEMM colonies were visualized and counted after 3 weeks of culture.

[2] = test system: murine Panc-02 pancreatic cancer cells; assay: Injection of BSA-conjugated sphingolipids into mice with subcutaneous Panc-02 tumors; type: in vivo; settings: subcutaneous Panc-02 in C57BL/6J mice; injection every other day, 0.1 mL of 100 μM, BSA carrier
Source text: (A) Splenic IMCs (Gr-1+CD11b+, also defined as MDSC: myeloid-derived suppressor cells) were isolated from subcutaneous human MDA-MB-231 breast tumor-bearing athymic nude mice, treated with or without dhS1P (to induce the expansion of CD19+CD45R B220+ cells: B-cells), and adoptively transferred into subcutaneous human MDA-MB-231 breast tumor-bearing athymic nude mice before monitoring tumor growth. ANOVA, **p<0.05 compared to PBS control, n≧6. (B) Splenic IMCs were isolated from orthotopic human BxPC-3 pancreatic tumor-bearing athymic nude mice, treated with or without dhS1P, and adoptively transferred into orthotopic human BxPC-3 pancreatic tumor-bearing athymic nude mice before monitoring survival. Logrank test, *p<0.05, n=5. (C) Tumor growth following BSA (lipid carrier control), sphingosine-1-phosphate (S1P), or dhS1P injection every other day, was monitored in C57BL/6J mice engrafted with subcutaneous murine Panc-02 pancreatic cancer cells. ANOVA, **p<0.05 compared to BSA control, n≧6.
Orthotopic pancreatic cancer and subcutaneous breast cancer tumors were established in athymic nude, NOD.CB17-Prkdcscid/J, BALB/cJ, or C57BL/6J mice as previously described (8, 9), with minor modifications. All cell lines used in animal and cellular studies, prior to any modification, were originally obtained from the American Type Culture Collection (Manassas, Va.). For orthotopic BxPC-3-GFP human pancreatic cancer xenografts, 4-6 week old female athymic mice were fully anesthetized with a mixture of ketamine-HCl (129 mg/kg) and xylazine (4 mg/kg) injected intramuscularly. A small incision was made in the left flank, the peritoneum was dissected and the pancreas exposed. Using a 27-gauge needle, 2.5×10^6 cells, prepared in 0.1 mL of Hank's balanced salt solution, were injected into the pancreas. For experimental lung-metastatic osteosarcoma xenografts, 4-6 week old female athymic nude mice were tail vein-injected with 2.5×10^6 human SAOS-2-LM7 cells. […] Tumor size was measured by caliper measurement. […]

[3] = test system: human MDA-MB-231 breast cancer cells; assay: PhotoImmunoNanoTherapy, subcutaneous MDA-MB-231 breast tumor growth in athymic nude mice; type: in vivo; settings: subcutaneous MDA-MB-231 in athymic nude mice; one injection, NIR laser 24 h later
Source text: To evaluate the antitumor efficacy of PhotoImmunoNanoTherapy, two murine models of breast cancer were utilized to study effects in T-cell-competent hosts (murine 410.4 cells in BALB/cJ mice) and T-cell-deficient hosts (human MDA-MB-231 cells in athymic nude mice; murine 410.4 cells in NOD.CB17-Prkdcscid/J mice), in addition to a subcutaneously engrafted model of pancreatic cancer (murine Panc-02 cells in C57BL/6J mice), an orthotopic pancreatic cancer model (human BxPC-3 cells in athymic nude mice), and an experimental model of lung-metastatic osteosarcoma (human SAOS-2-LM7 cells in athymic nude mice). Treatments were initiated one week following tumor establishment and consisted of injections of ICG-CPSNPs or controls followed 24 h later by NIR laser treatment of the tumor location to allow adequate tumor accumulation of PEGylated ICGCPSNPs. […] In the most elaborate study, MDA-MB-231 tumor growth was abrogated in athymic nude mice receiving PEGylated ICG-CPSNPs but not PBS or PEGylated ghost CPSNPs (FIG. 1A). Furthermore, MDA-MB-231 tumor growth was not blocked by non-PEGylated (citrate-terminated) ICG-CPSNPs or free ICG.
Orthotopic pancreatic cancer and subcutaneous breast cancer tumors were established in athymic nude, NOD.CB17-Prkdcscid/J, BALB/cJ, or C57BL/6J mice as previously described (8, 9), with minor modifications. […] Tumor size was measured by caliper measurement. […]

CCCCCCCCCCCCC/C=C/[C@@H](O)[C@@H](N)COP(=O)(O)O [S1P, sphingosine-1-phosphate, reference compound]
CFU-GEMM colony formation [1]: dramatically augmented
Tumor growth [2]: augmented tumor growth

CC1(C)C(/C=C/C=C/C=C/C=C2\N(CCCCS(=O)(=O)O)c3ccc4ccccc4c3C2(C)C)=[N+](CCCCS(=O)(=O)[O-])c2ccc3ccccc3c21 [free ICG, indocyanine green]
Tumor growth [3]: not blocked
